Assay results: ChEMBL document CHEMBL4680259, “Discovery of bazedoxifene analogues targeting glycoprotein 130” (Eur J Med Chem, 2020)

Tests used:
A549 = test: Antiproliferative activity against human A549 cells assessed as cell growth inhibition measured after 24 hrs by MTT assay; format: functional, cell-based; conditions: A549, 24 h
[1] = target: T1, Interleukin-6 receptor subunit beta (Homo sapiens) (UniProt P40189); test: Binding affinity to immobilized GP130 (unknown origin) assessed as response unit at 20 uM by SPR analysis
T1 sequence (whole entry): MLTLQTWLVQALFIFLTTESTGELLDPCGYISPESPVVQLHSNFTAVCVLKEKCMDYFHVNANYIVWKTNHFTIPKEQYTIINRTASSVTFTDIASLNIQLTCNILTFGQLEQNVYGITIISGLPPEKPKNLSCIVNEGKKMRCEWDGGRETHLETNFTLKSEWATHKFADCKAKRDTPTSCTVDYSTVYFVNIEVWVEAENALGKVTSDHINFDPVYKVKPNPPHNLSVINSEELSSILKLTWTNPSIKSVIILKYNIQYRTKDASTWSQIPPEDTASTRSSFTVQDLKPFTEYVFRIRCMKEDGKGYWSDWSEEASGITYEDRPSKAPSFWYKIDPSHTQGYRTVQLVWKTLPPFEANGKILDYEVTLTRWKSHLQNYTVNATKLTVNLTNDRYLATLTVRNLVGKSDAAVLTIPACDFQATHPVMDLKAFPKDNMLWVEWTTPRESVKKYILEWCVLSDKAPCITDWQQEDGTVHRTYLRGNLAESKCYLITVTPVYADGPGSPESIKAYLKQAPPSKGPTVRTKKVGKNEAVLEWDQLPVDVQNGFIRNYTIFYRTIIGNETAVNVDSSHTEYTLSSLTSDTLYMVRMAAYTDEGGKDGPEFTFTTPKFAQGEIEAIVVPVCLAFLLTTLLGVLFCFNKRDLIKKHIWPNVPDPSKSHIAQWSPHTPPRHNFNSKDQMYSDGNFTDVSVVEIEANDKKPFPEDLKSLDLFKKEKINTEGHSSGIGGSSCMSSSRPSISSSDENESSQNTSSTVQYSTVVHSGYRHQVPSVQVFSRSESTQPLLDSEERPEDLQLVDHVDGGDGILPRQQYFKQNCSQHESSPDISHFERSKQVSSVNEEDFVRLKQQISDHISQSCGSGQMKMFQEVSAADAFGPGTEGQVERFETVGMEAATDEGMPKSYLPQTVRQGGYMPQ

| Compound | IC50 (A549) [µM] | Activity [1] [RU] |
| --- | --- | --- |
| NC(=O)N1N=C(c2ccc(C(F)(F)F)cc2)CC1c1cn(Cc2ccc(OCCC3CCNCC3)cc2)c2ccc(Br)cc12 (stereo not given) | 4.62 | 35 |
| COc1ccc(C2=NN(C(N)=O)C(c3cn(Cc4ccc(OCCN5CCCCC5)cc4)c4ccc(Br)cc34)C2)cc1OC (stereo not given) | 7.43 | 30.1 |
| COc1ccc2c(c1)c(C1CC(c3ccc(F)cc3)=NN1C(N)=O)cn2Cc1ccc(OCCN2CCCCC2)cc1 (stereo not given) | 9.47 | 10.9 |
| COc1ccccc1C1=NN(C(N)=O)C(c2cn(Cc3ccc(OCCN4CCCCC4)cc3)c3ccc(Br)cc23)C1 (stereo not given) | 6.98 | 36.4 |
| CCCCCCCOc1ccc(Cn2cc(C3CC(c4ccc(C(F)(F)F)cc4)=NN3C(N)=O)c3cc(Br)ccc32)cc1 (stereo not given) | > 50 | 0.6 |
| COc1ccc(C2=NN(C(N)=O)C(c3cn(Cc4ccc(OCCN5CCCCC5)cc4)c4ccc(Br)cc34)C2)cc1 (stereo not given) | 5.9 | 26.2 |
| COc1cccc(C2=NN(C(N)=O)C(c3cn(Cc4ccc(OCCN5CCCCC5)cc4)c4ccc(Br)cc34)C2)c1 (stereo not given) | 6.23 | 19.6 |
| CN(C)CCOc1ccc(Cn2cc(C3CC(c4ccc(C(F)(F)F)cc4)=NN3C(N)=O)c3cc(Br)ccc32)cc1 (stereo not given) | 6.21 | 22.7 |
| NC(=O)N1N=C(c2ccc(F)cc2)CC1c1cn(Cc2ccc(OCCN3CCCCC3)cc2)c2ccc(Br)cc12 (stereo not given) | 6.8 | 19.9 |
| COc1cc(C2=NN(C(N)=O)C(c3cn(Cc4ccc(OCCN5CCCCC5)cc4)c4ccc(Br)cc34)C2)cc(OC)c1OC (stereo not given) | 6.96 | 32.7 |
| COc1ccc(C2=NN(C(N)=O)C(c3cn(Cc4ccc(OCCN5CCCCC5)cc4)c4ccc(OC)cc34)C2)cc1 (stereo not given) | 14.4 | 28.8 |
| NC(=O)N1N=C(c2ccc(F)cc2)CC1c1cn(Cc2ccc(OCCN3CCCCC3)cc2)c2ccccc12 (stereo not given) | 7.44 | 21 |
| NC(=O)N1N=C(c2ccc(C(F)(F)F)cc2)C[C@@H]1c1cn(Cc2ccc(OCCN3CCCCCC3)cc2)c2ccc(Br)cc12 | 6.16 | 24.2 |
| NC(=O)N1N=C(c2cccc(Cl)c2)CC1c1cn(Cc2ccc(OCCN3CCCCC3)cc2)c2ccc(Br)cc12 (stereo not given) | 5.9 | 27.4 |
| NC(=O)N1N=C(c2ccc(C(F)(F)F)cc2)C[C@H]1c1cn(Cc2ccc(OCCN3CCCCCC3)cc2)c2ccc(Br)cc12 | 3.04 | 37.4 |
| COc1ccc(C2=NN(C(N)=O)C(c3cn(Cc4ccc(OCCN5CCCCC5)cc4)c4ccccc34)C2)cc1 (stereo not given) | 12.7 | 33.3 |
| NC(=O)N1N=C(c2ccc(Br)cc2)CC1c1cn(Cc2ccc(OCCN3CCCCC3)cc2)c2ccc(Br)cc12 (stereo not given) | 6.73 | 47.3 |
| NC(=O)N1N=C(c2cccc(C(F)(F)F)c2)CC1c1cn(Cc2ccc(OCCN3CCCCC3)cc2)c2ccc(Br)cc12 (stereo not given) | 5.42 | 10.2 |
| NC(=O)N1N=C(c2ccc(C(F)(F)F)cc2)CC1c1cn(Cc2ccc(OCCN3CCOCC3)cc2)c2ccc(Br)cc12 (stereo not given) | 9.44 | 8.2 |
| COc1ccc2c(c1)c(C1CC(c3ccc(C(F)(F)F)cc3)=NN1C(N)=O)cn2Cc1ccc(OCCN2CCCCC2)cc1 (stereo not given) | 6.18 | 10.4 |
| NC(=O)N1N=C(c2ccc(Cl)cc2)CC1c1cn(Cc2ccc(OCCN3CCCCC3)cc2)c2ccc(Br)cc12 (stereo not given) | 5.41 | 29.2 |
| NC(=O)N1N=C(c2ccc(C(F)(F)F)cc2)CC1c1cn(Cc2ccc(OCCN3CCCCC3)cc2)c2ccc(Br)cc12 (stereo not given) | 4.69 | 19.9 |
| COc1cc(C2=NN(C(N)=O)C(c3cn(Cc4ccc(OCCN5CCCCC5)cc4)c4ccccc34)C2)cc(OC)c1OC (stereo not given) | 11.8 | 21.7 |
| COc1ccc2c(c1)c(C1CC(c3cc(OC)c(OC)c(OC)c3)=NN1C(N)=O)cn2Cc1ccc(OCCN2CCCCC2)cc1 (stereo not given) | 12.2 | 16.2 |
| NC(=O)N1N=C(c2ccc(C(F)(F)F)cc2)CC1c1cn(Cc2ccc(OCCN3CCCCC3)cc2)c2ccccc12 (stereo not given) | 5.6 | 8.2 |
